From the supplement of paper PMC10307832 come the findings set out here.

Common to all, as to assay: relative viability (nuclei count vs DMSO), 5 days (fraction); higher = more cells survive
Compound in the assay “Tosedostat + AZD7762”: CC(C)C[C@@H](C(=O)N[C@H](C(=O)OC1CCCC1)c1ccccc1)[C@H](O)C(=O)NO [Tosedostat] + NC(=O)Nc1cc(-c2cccc(F)c2)sc1C(=O)N[C@H]1CCCNC1 [AZD7762] (partner 0.2 µM)
Put shortly:
(§1)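 Nuclei were stained with Hoechst during a one-step fixation (final 0.05% Triton X-100, 1% formaldehyde, 1 ug/ml Hoechst) carried out 5 days after dosing, then counted on 4× images. The cells, lung cancer lines in 1536-well plates, had been dosed by pin tool the day after seeding with one drug alone or a fixed anchor-drug dose plus five library-drug doses (not always all listed) in √10 steps. Relative viability is the nuclei count in treated wells divided by that in vehicle wells, and each value is the median of duplicate plates.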

Compound in assay [1]: CC1=NN=C(O1)C2=NN=C(C=C2)N3CCC(CC3)OC4=C(C=CC(=C4)F)Cl + Cc1nc(NC(=O)N2CCC[C@H]2C(N)=O)sc1-c1ccnc(C(C)(C)C(F)(F)F)c1 [Alpelisib] (partner 2 µM)
In a few lines:
as §1

Compound in the assay “Tosedostat + Tozasertib”: CC(C)C[C@@H](C(=O)N[C@H](C(=O)OC1CCCC1)c1ccccc1)[C@H](O)C(=O)NO [Tosedostat] + Cc1cc(Nc2cc(N3CCN(C)CC3)nc(Sc3ccc(NC(=O)C4CC4)cc3)n2)n[nH]1 [Tozasertib] (partner 0.1 µM)
In a few lines: as §1

Compound in the assay “Tosedostat + OSI-027”: CC(C)C[C@@H](C(=O)N[C@H](C(=O)OC1CCCC1)c1ccccc1)[C@H](O)C(=O)NO [Tosedostat] + COc1cccc2cc(-c3nc([C@H]4CC[C@H](C(=O)O)CC4)n4ncnc(N)c34)[nH]c12 [OSI-027] (partner 0.5 µM)
In a few lines: as §1

For the cell line NCI-H1755, the relative viability with Tosedostat + AZD7762 (first compound 0.02 µM) came out at 0.43; with Tosedostat + AZD7762 (first compound 0.06325 µM), 0.462; in the assay with Tosedostat + AZD7762 (first compound 0.2 µM), 0.398; in the assay with Tosedostat + AZD7762 (first compound 0.6325 µM) it was 0.407; with Tosedostat + AZD7762 (first compound 2 µM) it was 0.347; in assay [1] (first compound 0.253 µM), 0.713. Also, the relative viability in assay [1] (first compound 0.8 µM) turned out to be 0.697; in assay [1] (first compound 2.53 µM), 0.709; in assay [1] (first compound 8 µM), 0.671; in the assay with Tosedostat + Tozasertib (first compound 0.02 µM) it was 0.665; in the assay with Tosedostat + Tozasertib (first compound 0.06325 µM), 0.578; with Tosedostat + Tozasertib (first compound 0.2 µM), 0.477. For the same cell line, the relative viability is 0.386 with Tosedostat + Tozasertib (first compound 0.6325 µM); 0.319 with Tosedostat + Tozasertib (first compound 2 µM); 0.743 with Tosedostat + OSI-027 (first compound 0.02 µM); 0.731 with Tosedostat + OSI-027 (first compound 0.06325 µM); 0.642 with Tosedostat + OSI-027 (first compound 0.2 µM); 0.674 with Tosedostat + OSI-027 (first compound 0.6325 µM). The relative viability with Tosedostat + OSI-027 (first compound 2 µM) was 0.463.

Turning to NCI-H1734, the relative viability with Tosedostat + AZD7762 (first compound 0.02 µM) was determined as 0.614; in the assay with Tosedostat + AZD7762 (first compound 0.06325 µM), 0.535; in the assay with Tosedostat + AZD7762 (first compound 0.2 µM) it was 0.504; in the assay with Tosedostat + AZD7762 (first compound 0.6325 µM) it was 0.411; in the assay with Tosedostat + AZD7762 (first compound 2 µM), 0.466; in assay [1] (first compound 0.253 µM) it was 0.655. The relative viability in assay [1] (first compound 0.8 µM) stood at 0.635; in assay [1] (first compound 2.53 µM) it was 0.672; in assay [1] (first compound 8 µM), 0.556; with Tosedostat + Tozasertib (first compound 0.02 µM), 0.24; with Tosedostat + Tozasertib (first compound 0.06325 µM) it was 0.242; with Tosedostat + Tozasertib (first compound 0.2 µM), 0.278. The relative viability was found to be 0.229 with Tosedostat + Tozasertib (first compound 0.6325 µM); 0.208 with Tosedostat + Tozasertib (first compound 2 µM); 0.593 with Tosedostat + OSI-027 (first compound 0.02 µM); 0.669 with Tosedostat + OSI-027 (first compound 0.06325 µM); 0.64 with Tosedostat + OSI-027 (first compound 0.2 µM); 0.571 in the assay with Tosedostat + OSI-027 (first compound 0.6325 µM). Further, the relative viability with Tosedostat + OSI-027 (first compound 2 µM) was 0.564.

Take NCI-H1993: the relative viability worked out at 0.678 in the assay with Tosedostat + AZD7762 (first compound 0.02 µM); 0.64 in the assay with Tosedostat + AZD7762 (first compound 0.06325 µM); 0.741 with Tosedostat + AZD7762 (first compound 0.2 µM); 0.556 in the assay with Tosedostat + AZD7762 (first compound 0.6325 µM); 0.493 with Tosedostat + AZD7762 (first compound 2 µM); 0.616 in assay [1] (first compound 0.253 µM). The relative viability stood at 0.619 in assay [1] (first compound 0.8 µM); 0.65 in assay [1] (first compound 2.53 µM); 0.702 in assay [1] (first compound 8 µM); 0.631 in the assay with Tosedostat + Tozasertib (first compound 0.02 µM); 0.535 with Tosedostat + Tozasertib (first compound 0.06325 µM); 0.56 with Tosedostat + Tozasertib (first compound 0.2 µM). Moreover, the relative viability with Tosedostat + Tozasertib (first compound 0.6325 µM) amounted to 0.588; with Tosedostat + Tozasertib (first compound 2 µM), 0.493; in the assay with Tosedostat + OSI-027 (first compound 0.02 µM) it was 0.555; with Tosedostat + OSI-027 (first compound 0.06325 µM), 0.476; with Tosedostat + OSI-027 (first compound 0.2 µM), 0.564; in the assay with Tosedostat + OSI-027 (first compound 0.6325 µM) it was 0.548. Moreover, in the assay with Tosedostat + OSI-027 (first compound 2 µM), the relative viability amounted to 0.442.

With RERF-LC-KJ, the relative viability worked out at 1.12 with Tosedostat + AZD7762 (first compound 0.02 µM); 1.08 in the assay with Tosedostat + AZD7762 (first compound 0.06325 µM); 1.08 with Tosedostat + AZD7762 (first compound 0.2 µM); 0.912 in the assay with Tosedostat + AZD7762 (first compound 0.6325 µM); 0.664 with Tosedostat + AZD7762 (first compound 2 µM); 0.765 in assay [1] (first compound 0.253 µM). The relative viability in assay [1] (first compound 0.8 µM) came to 0.695; in assay [1] (first compound 2.53 µM), 0.839; in assay [1] (first compound 8 µM), 0.781; with Tosedostat + Tozasertib (first compound 0.02 µM), 0.553; in the assay with Tosedostat + Tozasertib (first compound 0.06325 µM) it was 0.462; with Tosedostat + Tozasertib (first compound 0.2 µM), 0.403. For the same cell line, the relative viability with Tosedostat + Tozasertib (first compound 0.6325 µM) stood at 0.304; with Tosedostat + Tozasertib (first compound 2 µM), 0.293; in the assay with Tosedostat + OSI-027 (first compound 0.02 µM) it was 0.588; in the assay with Tosedostat + OSI-027 (first compound 0.06325 µM) it was 0.586; with Tosedostat + OSI-027 (first compound 0.2 µM), 0.486; in the assay with Tosedostat + OSI-027 (first compound 0.6325 µM), 0.452. Further, the relative viability with Tosedostat + OSI-027 (first compound 2 µM) turned out to be 0.418.

HARA: the relative viability with Tosedostat + AZD7762 (first compound 0.02 µM) was 0.41; with Tosedostat + AZD7762 (first compound 0.06325 µM), 0.459; in the assay with Tosedostat + AZD7762 (first compound 0.2 µM), 0.261; in the assay with Tosedostat + AZD7762 (first compound 0.6325 µM), 0.477; with Tosedostat + AZD7762 (first compound 2 µM), 0.262; in assay [1] (first compound 0.253 µM) it was 0.54. Further, the relative viability in assay [1] (first compound 0.8 µM) is 0.479; in assay [1] (first compound 2.53 µM), 0.516; in assay [1] (first compound 8 µM), 0.481; with Tosedostat + Tozasertib (first compound 0.02 µM) it was 0.111; with Tosedostat + Tozasertib (first compound 0.06325 µM), 0.129; with Tosedostat + Tozasertib (first compound 0.2 µM), 0.0782. The relative viability with Tosedostat + Tozasertib (first compound 0.6325 µM) was found to be 0.0748; with Tosedostat + Tozasertib (first compound 2 µM), 0.07; with Tosedostat + OSI-027 (first compound 0.02 µM) it was 0.695; in the assay with Tosedostat + OSI-027 (first compound 0.06325 µM), 0.492; with Tosedostat + OSI-027 (first compound 0.2 µM), 0.421; in the assay with Tosedostat + OSI-027 (first compound 0.6325 µM), 0.447. Also, the relative viability in the assay with Tosedostat + OSI-027 (first compound 2 µM) was 0.382.

Regarding NCI-H838, the relative viability with Tosedostat + AZD7762 (first compound 0.02 µM) was found to be 0.999; with Tosedostat + AZD7762 (first compound 0.06325 µM), 0.928; with Tosedostat + AZD7762 (first compound 0.2 µM), 0.893; with Tosedostat + AZD7762 (first compound 0.6325 µM), 0.973; with Tosedostat + AZD7762 (first compound 2 µM), 1; in assay [1] (first compound 0.253 µM) it was 0.833. Further, the relative viability in assay [1] (first compound 0.8 µM) was found to be 0.867; in assay [1] (first compound 2.53 µM), 0.916; in assay [1] (first compound 8 µM), 0.947; with Tosedostat + Tozasertib (first compound 0.02 µM), 0.273; in the assay with Tosedostat + Tozasertib (first compound 0.06325 µM), 0.262; with Tosedostat + Tozasertib (first compound 0.2 µM), 0.305. Further, the relative viability with Tosedostat + Tozasertib (first compound 0.6325 µM) was 0.283; with Tosedostat + Tozasertib (first compound 2 µM), 0.255; with Tosedostat + OSI-027 (first compound 0.02 µM), 0.383; with Tosedostat + OSI-027 (first compound 0.06325 µM), 0.413; with Tosedostat + OSI-027 (first compound 0.2 µM) it was 0.445; with Tosedostat + OSI-027 (first compound 0.6325 µM), 0.503. Moreover, in the assay with Tosedostat + OSI-027 (first compound 2 µM), the relative viability worked out at 0.404.

Take NCI-H1666: the relative viability in the assay with Tosedostat + AZD7762 (first compound 0.02 µM) was 0.878; in the assay with Tosedostat + AZD7762 (first compound 0.06325 µM), 0.919; in the assay with Tosedostat + AZD7762 (first compound 0.2 µM) it was 1.02; with Tosedostat + AZD7762 (first compound 0.6325 µM), 0.912; with Tosedostat + AZD7762 (first compound 2 µM), 0.907; in assay [1] (first compound 0.253 µM) it was 0.672. In addition, the relative viability in assay [1] (first compound 0.8 µM) was 0.738; in assay [1] (first compound 2.53 µM) it was 0.846; in assay [1] (first compound 8 µM) it was 0.792; in the assay with Tosedostat + Tozasertib (first compound 0.02 µM), 0.639; with Tosedostat + Tozasertib (first compound 0.06325 µM), 0.711; in the assay with Tosedostat + Tozasertib (first compound 0.2 µM), 0.541. In addition, the relative viability turned out to be 0.726 with Tosedostat + Tozasertib (first compound 0.6325 µM); 0.623 in the assay with Tosedostat + Tozasertib (first compound 2 µM); 0.839 with Tosedostat + OSI-027 (first compound 0.02 µM); 0.856 with Tosedostat + OSI-027 (first compound 0.06325 µM); 0.822 with Tosedostat + OSI-027 (first compound 0.2 µM); 0.835 in the assay with Tosedostat + OSI-027 (first compound 0.6325 µM). Further, in the assay with Tosedostat + OSI-027 (first compound 2 µM), the relative viability amounted to 0.845.
